# Columns and labels:
# [1] = tested on: HIV-1; test: Antiviral activity: HIV antigen concentration in HIV-1 infected MT4 cells; type: cell-based; conditions: MT4 cells (human CD4 cell line), 1, 10 and 100 μM, after 72 hours; FIG. 1
# Procedure: (§1) 40H—OPB was added to cultures of growing MT4 cells (a human CD4 cell line). HIV-1, stored in the culture medium at −75° C. was thawed and added in an amount which infected about 1 in 7 cells in each culture. The virus was absorbed to the cells for 2.3 hours at ambient temperature whereafter the cultures were centrifuged at 1200 rpm, the medium was removed, the cells were suspended in fresh growth medium and 40H—OPB was added to concentrations of 1, 10 and 100 μM (diluted in medium from a stock solution of 20 mM in DMSO). After 72 hours the HIV antigen concentration was determined using Abbott's test. By way of comparison phenbutazone (PB) was tested analogously.
# [2] = tested on: mice; test: Mouse toxicity; type: in vivo
# Procedure: 20 g mice were given single doses of 40H—OPB (20 mM in DMSO) intraperitoneally. […] Furthermore, injection of 40H—OPB could be increased to 2000 mg/kg (corresponding to 20 mM in the extracellular fluid) before the mice started to die (6 out of 10 died at 2000 mg/kg).
# [3] = tested on: HIV-1; test: Combination antiviral effect in HIV-1 infected MT4 cells; type: cell-based; conditions: with AZT, Indinavir, Nevirapin or ddI, FIGS. 2-5
# Procedure: as §1
# Cell culture experiments were carried out as in Example 12, but in place of 40H—OPB (0-100 μM) was added:
# i) 40H—OPB ([…]) with AZT (0-1 μM)
# iii) 40H—OPB (0-100 μM) with Nevirapin (0-10 μM)
smiles,measurement,setting,value
"CCCCC1(O)C(=O)N(c2ccccc2)N(c2ccc(O)cc2)C1=O (stereo not drawn) [40H—OPB, 4-(1-Butyl)-4-hydroxy-1-(4-hydroxyphenyl)-2-phenyl-3,5-pyrazolidinedione]","inhibition of virus production (HIV antigen concentration, Abbott's test)",[1],inhibition of virus production by 40H—OPB at concentrations above the lowest tested
same,lethal dose expressed as concentration in the extracellular fluid,"[2]; mice, corresponding to 2000 mg/kg",20 mM
same,dose reached before the mice started to die (lethal dose),"[2]; mice, single dose intraperitoneally",2000 mg/kg
same,factor by which concentrations that effectively inhibit HIV replication in cell cultures are lower than the lethal dose in mice,"[2]; mouse, in vivo, 2000 mg/kg",up to 200000 times
same,mice that died,"[2]; mouse, in vivo, ip, 2000 mg/kg",6 out of 10
same,anti-HIV effect in combination with other anti-viral agents,[3],enhanced anti-HIV effect

# Reference: patent US20040152751A1, “Pyrazolidinol compounds” (priority 1999, published 2004)
